Literature values, collected in patent US8501717B2, “Methods to treat and/or prevent mucositis” (Merck, Sharp & Dohme Corp., priority 2007, dated 2013).

Details: less than the effect of an equal dose of calcitriol

C=C1/C(=C\C=C2/CCC[C@]3(C)C([C@H](C)CC#CC(C)(C)O)=CC[C@@H]23)C[C@@H](O)C[C@@H]1O [Ro23-7553]
hypercalcemic effect compared to calcitriol (in words): reduced hypercalcemic effect
